Reference: the supplement of paper PMC12076712

How the values were obtained:
UniProt Q99683 = target: T1, UniProt Q99683; assay: pIC50, kinobeads binding competition
T1 sequence (whole entry): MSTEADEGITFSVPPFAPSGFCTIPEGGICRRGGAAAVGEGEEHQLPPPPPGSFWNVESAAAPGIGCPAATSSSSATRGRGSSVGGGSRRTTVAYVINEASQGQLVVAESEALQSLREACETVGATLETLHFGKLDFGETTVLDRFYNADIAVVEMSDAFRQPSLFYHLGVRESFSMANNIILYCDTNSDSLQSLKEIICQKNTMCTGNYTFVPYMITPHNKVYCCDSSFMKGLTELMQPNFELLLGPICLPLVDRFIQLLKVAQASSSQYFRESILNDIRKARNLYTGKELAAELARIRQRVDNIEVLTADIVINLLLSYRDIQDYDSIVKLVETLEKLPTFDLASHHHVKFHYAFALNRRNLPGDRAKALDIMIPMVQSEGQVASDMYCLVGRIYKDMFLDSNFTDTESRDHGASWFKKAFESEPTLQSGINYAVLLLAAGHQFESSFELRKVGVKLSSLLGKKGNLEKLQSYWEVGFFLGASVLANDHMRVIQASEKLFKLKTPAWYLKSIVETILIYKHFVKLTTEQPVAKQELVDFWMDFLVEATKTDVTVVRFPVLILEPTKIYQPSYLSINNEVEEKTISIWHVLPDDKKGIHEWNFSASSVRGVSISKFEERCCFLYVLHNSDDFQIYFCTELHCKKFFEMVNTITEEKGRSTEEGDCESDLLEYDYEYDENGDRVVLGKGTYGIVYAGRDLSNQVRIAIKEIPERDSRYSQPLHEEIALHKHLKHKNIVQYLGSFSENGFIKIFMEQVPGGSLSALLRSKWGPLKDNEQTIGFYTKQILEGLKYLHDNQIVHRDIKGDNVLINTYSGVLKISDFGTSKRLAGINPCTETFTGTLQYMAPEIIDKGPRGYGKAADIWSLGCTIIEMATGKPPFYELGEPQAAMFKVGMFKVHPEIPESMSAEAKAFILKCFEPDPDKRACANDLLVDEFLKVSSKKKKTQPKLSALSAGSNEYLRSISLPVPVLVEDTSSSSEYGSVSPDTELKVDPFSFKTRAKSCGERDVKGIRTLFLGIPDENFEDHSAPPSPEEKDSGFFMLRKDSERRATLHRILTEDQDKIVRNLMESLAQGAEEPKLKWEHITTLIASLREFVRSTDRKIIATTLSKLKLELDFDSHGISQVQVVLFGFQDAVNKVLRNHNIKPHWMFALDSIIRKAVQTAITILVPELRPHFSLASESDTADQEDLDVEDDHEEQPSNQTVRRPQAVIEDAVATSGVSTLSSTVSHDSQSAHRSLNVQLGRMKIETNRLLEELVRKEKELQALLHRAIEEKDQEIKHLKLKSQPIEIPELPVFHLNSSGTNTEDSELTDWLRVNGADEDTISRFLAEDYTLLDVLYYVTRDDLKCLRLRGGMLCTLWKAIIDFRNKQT
How it was run: (§1)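 Live Jurkat cells were treated with nine compound concentrations (top 30 μM, 1:4 steps) or DMSO for 60 min at 37 °C before lysis. Alternatively, Jurkat lysate or a 1:1:1:1 HEK293/K-562/HepG2/placenta lysate mix was incubated with nine concentrations (top 30 μM, 1:5 steps) for 60 min at 4 °C. Kinobeads-bound proteins were digested and quantified by TMT10 LC-MS/MS. pIC50 came from logistic dose-response fits (R drc package) of fold changes versus DMSO, in biological duplicates.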

LATS2 = target: T2, LATS2 (UniProt Q9NRM7); assay: pIC50, kinobeads binding competition
T2 sequence (whole entry): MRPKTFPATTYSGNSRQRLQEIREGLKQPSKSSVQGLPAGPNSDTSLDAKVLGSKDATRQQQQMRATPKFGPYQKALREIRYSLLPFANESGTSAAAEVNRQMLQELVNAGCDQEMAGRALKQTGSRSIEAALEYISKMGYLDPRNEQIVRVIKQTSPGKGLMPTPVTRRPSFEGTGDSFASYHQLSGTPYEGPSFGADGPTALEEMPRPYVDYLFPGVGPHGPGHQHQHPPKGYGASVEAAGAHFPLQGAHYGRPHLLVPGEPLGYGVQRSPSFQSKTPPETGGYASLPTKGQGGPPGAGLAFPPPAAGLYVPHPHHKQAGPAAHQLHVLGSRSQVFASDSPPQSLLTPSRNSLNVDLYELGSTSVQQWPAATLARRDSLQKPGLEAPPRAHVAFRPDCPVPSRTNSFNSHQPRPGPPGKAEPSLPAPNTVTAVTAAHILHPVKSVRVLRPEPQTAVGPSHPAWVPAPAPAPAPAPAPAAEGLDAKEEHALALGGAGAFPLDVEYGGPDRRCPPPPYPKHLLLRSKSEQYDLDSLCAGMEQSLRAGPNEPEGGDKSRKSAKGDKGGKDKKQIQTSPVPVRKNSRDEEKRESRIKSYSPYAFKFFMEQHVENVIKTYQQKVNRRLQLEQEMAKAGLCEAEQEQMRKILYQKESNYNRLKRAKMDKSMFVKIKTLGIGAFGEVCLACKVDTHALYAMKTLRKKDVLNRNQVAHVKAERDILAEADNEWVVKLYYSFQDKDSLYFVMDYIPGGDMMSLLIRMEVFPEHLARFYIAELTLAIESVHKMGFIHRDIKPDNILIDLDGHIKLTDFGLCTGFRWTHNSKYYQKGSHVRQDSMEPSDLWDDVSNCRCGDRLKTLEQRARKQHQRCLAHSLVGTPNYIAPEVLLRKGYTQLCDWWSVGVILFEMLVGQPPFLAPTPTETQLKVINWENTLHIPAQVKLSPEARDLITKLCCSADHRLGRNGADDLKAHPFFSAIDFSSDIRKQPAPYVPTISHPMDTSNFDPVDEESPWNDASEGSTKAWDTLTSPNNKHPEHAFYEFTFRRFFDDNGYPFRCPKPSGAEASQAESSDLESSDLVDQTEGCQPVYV
How it was run: as §1

Row | SMILES | pIC50 (UniProt Q99683; cell material: Lysate mix) | pIC50 (LATS2; cell material: Lysate mix) | pIC50 (LATS2; cell material: Jurkat cells) | pIC50 (UniProt Q99683; cell material: Jurkat cells) | pIC50 (UniProt Q99683; cell material: Jurkat lysate) | pIC50 (LATS2; cell material: Jurkat lysate)
1 | CCNC(=O)c1cc(Nc2cc(C)[nH]n2)nc(N2CCN(Cc3ccc(S(=O)(=O)F)cc3)CC2)n1 | 4.69 |  |  |  |  | 
2 | CCNC(=O)c1cc(Nc2cc(C3CC3)[nH]n2)nc(N2CCN(Cc3ccc(S(=O)(=O)F)cc3)CC2)n1 | < 4.52 | 5.31 |  |  |  | 
3 | Cc1cc(Nc2cc(C(=O)NCCNC(=O)OC3CC/C=C/CCC3)nc(N3CCN(Cc4ccc(S(=O)(=O)F)cc4)CC3)n2)n[nH]1 (configuration not stated) | < 4.52 | < 4.52 |  |  |  | 
4 | C#CCNC(=O)c1cc(Nc2cc(C3CC3)[nH]n2)nc(N2CCN(Cc3ccc(S(=O)(=O)F)cc3)CC2)n1 | < 4.52 | 5.84 | 5.82 | 5.39 | < 4.52 | 
5 | C#CCNC(=O)c1cc(Nc2cc(C)[nH]n2)nc(N2CCN(Cc3ccc(S(=O)(=O)F)cc3)CC2)n1 |  | 4.77 |  |  |  | 
6 | O=C(NCCNC(=O)c1cc(Nc2cc(C3CC3)[nH]n2)nc(N2CCN(Cc3ccc(S(=O)(=O)F)cc3)CC2)n1)OC1CC/C=C/CCC1 (configuration not stated) | < 4.52 | < 4.52 | 5.54 | 4.75 | < 4.52 | < 4.52
